Columns and labels:
PC3 cells = assay: Polysome analysis; format: cell-based, human; conditions: 100 nM, 3-hour
Description: Cells were re-suspended in PBS containing 100 μg ml^−1 cycloheximide (Sigma) and incubated on ice for 10 min. Cells were centrifuged at 300 g for 5 min at 4° C. and lysed in 10 mM Tris-HCl pH 8, 140 mM NaCl, 5 mM MgCl2, 640 U ml^−1 Rnasin, 0.05% NP-40, 250 μg ml^−1 cycloheximide, 20 mM DTT, and protease inhibitors. Samples were incubated for 20 min on ice, then centrifuged once for 5 min at 3,300 g and once for 5 min at 9,300 g, isolating the supernatant after each centrifugation. Lysates were loaded onto 10-50% sucrose gradients containing 0.1 mg ml^−1 heparin and 2 mM DTT and centrifuged at 37,000 r.p.m. for 2.5 hr at 4° C. The sample was subsequently fractionated on a gradient fractionation system (ISCO). RNA was extracted from all fractions and run on a TBE-agarose gel to visualize 18S and 28S rRNA.

Snail1, LEF1 and Twist1 = assay: Snail1 immunocytochemistry, LEF1/Twist1 Western blot and qPCR (YB1 target genes); format: cell-based, human; conditions: PC3 cells, 200 nM
Description: Western blot analysis was performed as previously described (Hsieh et al., Cancer Cell 17:249-261 (2010)) with antibodies specific to phospho-AKT^S473 (Cell Signaling), AKT (Cell Signaling), phospho-p70S6K^T389 (Cell Signaling), phospho-rpS6^S240/244 (Cell Signaling), rpS6 (Cell Signaling), phospho-4EBP1^T37/46 (Cell Signaling), 4EBP1 (Cell Signaling), 4EBP2 (Cell Signaling), YB1 (Cell Signaling), CD44 (Cell Signaling), LEF1 (Cell Signaling), PTEN (Cell Signaling), eEF2 (Cell Signaling), GAPDH (Cell Signaling), vimentin (BD Biosciences), eIF4E (BD Biosciences), Flag (Sigma), β-actin (Sigma), MTA1 (Santa Cruz Biotechnology), Twist (Santa Cruz Biotechnology), rpL28 (Santa Cruz Biotechnology), HA (Covance) and rictor (Bethyl Laboratory).
RNA was isolated using the manufacturer's protocol for RNA extraction with TRIzol Reagent (Invitrogen) using the Pure Link RNA mini kit (Invitrogen). RNA was DNase-treated with Pure Link Dnase (Invitrogen). DNase-treated RNA was transcribed to cDNA with SuperScript III First-Strand Synthesis System for RT-PCR (Invitrogen), and 1 μl of cDNA was used to run a SYBR green detection qPCR assay (SYBR Green Supermix and MyiQ2, Biorad). […]
Appropriately transfected or treated PC3 cells were plated on a poly-L-lysine-coated chamber slide (Lab-Tek) and cultured for 48 hr. […] Image capture and quantification were completed as described below (see “Immunofluorescence”).

CC(C)n1nc(-c2ccc3oc(N)nc3c2)c2c(N)ncnc21 [ATP site inhibitor of mTOR]
association of YB1 and rpS19 mRNAs in polysome fractions (PC3 cells): differential association | β-actin mRNA association in polysome fractions (PC3 cells): no change | protein levels but not mRNA levels of YB1 target genes (Snail1, LEF1, Twist1) (Snail1, LEF1 and Twist1): decreases

From patent publication US20190136321A1, “USE OF TRANSLATIONAL PROFILING TO IDENTIFY TARGET MOLECULES FOR THERAPEUTIC TREATMENT” (The Regents of The University of California, priority 2013, published 2019)
